Like-named read-outs stand apart in the source and are kept apart here. Marks after values point to notes of the source that are not given here.
Key:
[1] = test system: leukotriene mediated peritonitis; assay: Zymosan-induced peritonitis model in mice; type: in vivo, CD1 male mice; conditions: intraperitoneal, 30 min prior to zymosan
Method: Compound I-12 was evaluated in vivo in a peritonitis model in mice. The experimental protocols were approved by the Animal Care Committee of the University of Naples Federico II, in compliance with Italian regulations on protection of animals used for experimental and other scientific purpose (Ministerial Decree 116/92) as well as with the European Economic Community regulations (Official Journal of E.C. L 358/1 12/18/1986); protocol number: 2014/0018760 27th February 2014. CD1 male mice with an age of six to eight weeks were investigated. The leukotriene mediated peritonitis is induced by injection of 1 mg zymosan in 50 µl saline solution. 30 min prior to induction, the candidate compound was applied as intraperitoneal injection in different concentrations as well as DMSO as negative control and positive controls (MK886, zileuton). Results are given in Table 3, wherein […] and LTB 4 levels are measured as well as vascular permeability (VP) and the cell recruitment in the peritoneal cavity (Cell Rec). Table 3: Results from an in vivo study with a mouse peritonitis model
In Table 3, values in percent indicate the percent inhibition in respect to the vehicle control. Statistical significance is determined via ANOVA Bonferroni, wherein * indicates p<0.05; ** indicates p<0.01; *** indicates p<0.001 vs. vehicle. N indicates the number of investigated mice.

mPGES = mPGES activity; type: biochemical; conditions: concentrations up to 10 µM
COX-2 = biological target: T1, COX-2 (Homo sapiens, UniProt P35354); assay: COX-2 activity; type: biochemical; conditions: concentrations up to 10 µM
T1 sequence (P35354 18-604): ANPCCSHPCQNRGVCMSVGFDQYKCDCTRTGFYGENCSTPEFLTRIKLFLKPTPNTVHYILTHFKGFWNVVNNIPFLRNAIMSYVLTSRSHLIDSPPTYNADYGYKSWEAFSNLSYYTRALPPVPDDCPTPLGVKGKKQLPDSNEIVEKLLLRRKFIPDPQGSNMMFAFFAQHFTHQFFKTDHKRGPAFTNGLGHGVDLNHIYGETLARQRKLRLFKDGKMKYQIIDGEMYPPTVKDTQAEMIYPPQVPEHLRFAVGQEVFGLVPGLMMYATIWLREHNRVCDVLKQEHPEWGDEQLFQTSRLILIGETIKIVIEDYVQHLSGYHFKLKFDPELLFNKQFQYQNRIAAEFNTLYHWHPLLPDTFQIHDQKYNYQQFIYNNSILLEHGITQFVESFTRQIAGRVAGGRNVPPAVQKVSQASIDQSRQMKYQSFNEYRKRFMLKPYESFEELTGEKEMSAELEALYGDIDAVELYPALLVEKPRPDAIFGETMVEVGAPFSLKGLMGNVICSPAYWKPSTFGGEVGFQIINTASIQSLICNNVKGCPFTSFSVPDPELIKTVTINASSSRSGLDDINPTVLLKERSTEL

COX-1 = COX-1 (Homo sapiens, UniProt P23219); assay: COX-1 activity; type: biochemical; conditions: concentrations up to 10 µM
[2] = test system: 5-LOX product formation in PMNL; assay: 5-LOX product formation in PMNL stimulated with A23187 (cell-based); design: species or system human; conditions: Homo sapiens, PMNL
Method: Briefly, first a cell-based assay allows to determine the inhibition of the 5-LOX product biosynthesis. The cell suspension contained human neutrophils (PMNL) or monocytes, wherein the cells were isolated from buffy coats obtained from healthy donors pooled by gender. An aliquot cell suspension was incubated with the candidate compound for 15 min at 37 °C. The cells are treated with calcium ionophore A23187 to stimulate 5-LOX product formation for further 10 min (37 °C), optionally in presence of various concentrations of AA. The reaction was stopped with 1 mL methanol on ice.
In both assays, product quantification was conducted with RP-HPLC and UV detection after solid phase extraction and addition of 200 ng prostaglandin B1 as internal standard.

15-LOX = type: cell-based; conditions: neutrophils
Excerpt: (§1) […]. […] This could be beneficial as the 15-LOX product 15-HETE is anti-inflammatory.

12-LOX = type: cell-based; conditions: neutrophils, exogenous AA 10, 30 or 60 µM
Excerpt: as §1

HEK cells with FLAP = assay: 5-LOX product formation in HEK cells that express FLAP

COX-1, sequence (P23219 24-599): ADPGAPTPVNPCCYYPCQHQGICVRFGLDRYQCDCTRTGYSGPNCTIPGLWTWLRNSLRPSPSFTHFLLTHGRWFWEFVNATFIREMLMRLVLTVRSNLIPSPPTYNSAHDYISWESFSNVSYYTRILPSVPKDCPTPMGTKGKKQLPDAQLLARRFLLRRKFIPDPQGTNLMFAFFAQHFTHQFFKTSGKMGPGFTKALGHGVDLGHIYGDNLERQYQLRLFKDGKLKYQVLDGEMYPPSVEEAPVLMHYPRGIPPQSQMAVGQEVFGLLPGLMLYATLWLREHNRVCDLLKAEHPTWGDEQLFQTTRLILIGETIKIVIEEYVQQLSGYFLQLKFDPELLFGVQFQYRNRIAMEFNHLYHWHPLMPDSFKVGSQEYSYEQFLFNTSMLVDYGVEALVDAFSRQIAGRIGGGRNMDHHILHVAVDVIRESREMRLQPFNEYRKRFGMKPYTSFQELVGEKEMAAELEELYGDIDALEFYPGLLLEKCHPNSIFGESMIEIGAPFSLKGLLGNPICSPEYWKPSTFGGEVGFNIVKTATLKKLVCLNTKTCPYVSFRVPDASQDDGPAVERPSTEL

For `Cc1cc(OCc2nc3ccccc3s2)ccc1NC(=O)Nc1ccc(Cl)c(Cl)c1` [Compound I-12, N-[4-(2-benzothiazolylmethoxy)-2-methylphenyl]-N'-(3,4-dichlorophenyl)-urea], the “Cell Rec (cell recruitment in the peritoneal cavity)” value ([1]; 1 mg) was 5.93±0.321 10^6/ml, the “Cell Rec, percent inhibition in respect to the vehicle control” value (from here on “Cell Rec, percent inhibition”) ([1]; 1 mg) was 22% and the LTB4 ([1]; 1 mg) was 280 ± 42.8 pg/mL. The “LTB4, percent inhibition in respect to the vehicle control” value (“LTB4, percent inhibition” for short) ([1]; 1 mg) was 59%**, the LTC4 ([1]; 1 mg) was 26.0 ± 9.47 ng/mL and the “LTC4, percent inhibition in respect to the vehicle control” value (“LTC4, percent inhibition” for short) ([1]; 1 mg) was 70%***. For the same molecule, the “Cell Rec (cell recruitment in the peritoneal cavity)” value ([1]; 3 mg) was 4.4±0.509 10^6/ml, the “Cell Rec, percent inhibition” value ([1]; 3 mg) was 42%*** and the LTB4 ([1]; 3 mg) was 345 ± 69.2 pg/mL. The “LTB4, percent inhibition” value ([1]; 3 mg) was 50%*, the LTC4 ([1]; 3 mg) was 30.5 ± 10.3 ng/mL and the “LTC4, percent inhibition” value ([1]; 3 mg) was 66%***. For the same molecule, the “Cell Rec (cell recruitment in the peritoneal cavity)” value ([1]; 10 mg) was 3.36±0.439 10^6/ml, the “Cell Rec, percent inhibition” value ([1]; 10 mg) was 56%*** and the LTB4 ([1]; 10 mg) was 193 ± 34.4 pg/mL. The “LTB4, percent inhibition” value ([1]; 10 mg) was 72%***, the LTC4 ([1]; 10 mg) was 25.8 ± 2.66 ng/mL and the “LTC4, percent inhibition” value ([1]; 10 mg) was 70%***. For the same molecule, the “VP (vascular permeability)” value ([1]; 10 mg) was 0.347±0.09 abs 610 nm, the “VP, percent inhibition in respect to the vehicle control” value ([1]; 10 mg) was 38% and the mPGES (mPGES) was “not affected”. For the same molecule, the COX-2 activity (COX-2) was “not affected”, the “effect on 5-LOX product formation” value (HEK cells without FLAP) was “nearly no effect” and the COX-1 activity (COX-1) was “not affected”. The IC50 ([2]; male PMNL cells, Exogenous AA 3 µM, read-out: IC50 values for 5-LOX product formation) was 380 nM, the IC50 ([2]; male PMNL cells, Exogenous AA 10 µM, read-out: IC50 values for 5-LOX product formation) was 1600 nM and the IC50 ([2]; male PMNL cells, Exogenous AA 30 µM, read-out: IC50 values for 5-LOX product formation) was 2100 nM. For the same molecule, the IC50 ([2]; male PMNL cells, Exogenous AA 60 µM, read-out: IC50 values for 5-LOX product formation) was 9100 nM, the IC50 ([2]; read-out: Effect on 5-LOX product formation in PMNL, IC50) was 240 nM and the “product formation of 15-LOX (15-HETE)” value (15-LOX; 10 µM AA) was “increase of the product formation”. The “product formation of 15-LOX” value (15-LOX; exogenous AA 10, 30 or 60 µM) was “did not inhibit”, the “product formation of 12-LOX” value (12-LOX) was “did not inhibit” and the “effect on 5-LOX product formation” value (HEK cells with FLAP) was “inhibits the product formation”.

From patent EP3315495A1, “N,N' -[…], N,N' -DIAR[…] N,N' -DIARY[…] FOR USE IN TREATMENT AND PREVENTION OF INFLAMMATORY DISEASE” (Universität Innsbruck, priority 2016, dated 2018)
